# Assay results taken from patent US20260125382A1, “COMPOUNDS FOR INHIBITING OR DEGRADING CDK2 AND/OR CDK9 AND MEDICINAL USE THEREOF” (KOREA RESEARCH INSTITUTE OF CHEMICAL TECHNOLOGY, priority 2022, published 2026).
# Tests used:
# [1] = biological target: T1, CDK2 (Homo sapiens, UniProt P24941); assay: CDK protein degradation activity (Western blotting), CDK2; type: cell-based; conditions: MDA-MB-231 cells, 16 hours, Western blot
# T1 construct: endogenous in cells; host or cells: MDA-MB-231
# Description: (§1) In order to evaluate the CDK protein degradation activity of the compounds according to the present invention, the following experiment was conducted.
# (§2) MDA-MB-231 cells were seeded at 5×10^5 cells per well in a 6-well plate. The next day, the compounds were treated in each well to achieve final concentrations of 100 nM, 1 μM, and 10 μM. For the control group, an equal amount of DMSO was treated in the well as the compound. After 16 hours of treatment, cells were collected, and cell lysates were prepared using Triton X-100 lysis buffer (50 mM HEPES, pH 7.5, 40 mM NaCl, 1% Triton X-100, 1 mM EDTA, 1 mM EGTA, 10 mM pyrophosphate, 10 mM β-glycerophosphate, 50 mM NaF, 1 mM NaVO4, protease inhibitor). Cell lysates were quantified and separated by size using sodium dodecyl sulfate-polyacrylamide gel electrophoresis (SDS-PAGE). Western blotting was then performed using antibodies that recognize CDK2, CDK9, and tubulin, respectively. The results obtained by Western blotting were quantitatively analyzed using the ImageJ program, and representative images according to the experimental results are shown in FIG. 1.
# [2] = biological target: T2, CDK9 (Homo sapiens, UniProt P50750); assay: CDK protein degradation activity (Western blotting), CDK9; type: cell-based; conditions: MDA-MB-231 cells, 16 hours, Western blot
# T2 construct: endogenous in cells; host or cells: MDA-MB-231
# T2 sequence (P50750 whole entry): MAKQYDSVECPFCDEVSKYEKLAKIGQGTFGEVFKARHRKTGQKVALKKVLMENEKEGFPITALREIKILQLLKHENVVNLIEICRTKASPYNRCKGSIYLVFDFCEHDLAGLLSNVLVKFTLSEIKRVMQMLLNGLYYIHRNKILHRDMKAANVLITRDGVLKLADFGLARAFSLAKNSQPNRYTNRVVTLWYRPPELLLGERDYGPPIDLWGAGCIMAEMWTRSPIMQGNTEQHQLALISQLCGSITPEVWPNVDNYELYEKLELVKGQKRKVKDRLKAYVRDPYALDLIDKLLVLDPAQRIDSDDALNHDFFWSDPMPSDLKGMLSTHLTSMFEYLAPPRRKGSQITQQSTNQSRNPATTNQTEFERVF
# Description: as §1, §2
Structure (SMILES),Enzyme degradation CDK2 (% remaining) @ 0.1 μM [1],Enzyme degradation CDK2 (% remaining) @ 1 μM [1],Enzyme degradation CDK2 (% remaining) @ 10 μM [1],Enzyme degradation CDK9 (% remaining) @ 0.1 μM [2],Enzyme degradation CDK9 (% remaining) @ 1 μM [2],Enzyme degradation CDK9 (% remaining) @ 10 μM [2]
"Cc1cccc(C(=O)N[C@H]2C[C@@H](n3cnc4c(NC5CCN(CCC6CCN(c7ccc8c(c7)C(=O)N([C@H]7CCC(=O)NC7=O)C8=O)CC6)CC5)ncnc43)C2)n1 [Compound 35, N-((1s,3s)-3-(6-((1-(2-(1-(2-(2,6-dioxopiperidin-3-yl)-1,3-dioxoisoindolin-5-yl)piperidin-4-yl)ethyl)piperidin-4-yl)amino)-9H-purin-9-yl)cyclobutyl)-6-methylpicolinamide]",100%,60%,60%,0%,10%,10%
"Cc1cccc(C(=O)N[C@H]2C[C@@H](n3cnc4c(NC5CCN(CCC6CCN(c7cccc8c7C(=O)N([C@H]7CCC(=O)CC7=O)C8=O)CC6)CC5)ncnc43)C2)n1 [Compound 36, N-((1s,3s)-3-(6-((1-(2-(1-(2-(2,4-dioxocyclohexyl)-1,3-dioxoisoindolin-4-yl)piperidin-4-yl)ethyl)piperidin-4-yl)amino)-9H-purin-9-yl)cyclobutyl)-6-methylpicolinamide]",100/100/100%,100/100/100%,100/100/100%,30%,10%,20%
"Cc1cccc(C(=O)N[C@H]2C[C@@H](n3cnc4c(NC5CCN(CCCN6CCN(C(=O)CNc7cccc8c7C(=O)N([C@H]7CCC(=O)NC7=O)C8=O)CC6)CC5)ncnc43)C2)n1 [Compound 38, N-((1s,3s)-3-(6-((1-(3-(4-((2-(2,6-dioxopiperidin-3-yl)-1,3-dioxoisoindolin-4-yl)glycyl)piperazin-1-yl)propyl)piperidin-4-yl)amino)-9H-purin-9-yl)cyclobutyl)-6-methylpicolinamide]",40%,30%,20%,0/0/0%,0/0/0%,0/0/0%
"Cc1cccc(C(=O)NC2CC(n3cnc4c(NC5CCN(CCCN6CCN(c7cccc8c7C(=O)N([C@H]7CCC(=O)NC7=O)C8=O)CC6)CC5)ncnc43)C2)n1 (stereo partly drawn) [Compound 42, N-((1s,3s)-3-(6-((1-(3-(4-(2-(2,6-dioxopiperidin-3-yl)-1,3-dioxoisoindolin-4-yl)piperazin-1-yl)propyl)piperidin-4-yl)amino)-9H-purin-9-yl)cyclobutyl)-6-methylpicolinamide]",100%,60%,30%,30%,0%,10%
"Cc1cccc(C(=O)N[C@H]2C[C@@H](n3cnc4c(NC5CCN(CCOC6CCN(C(=O)COc7ccc8c(c7)C(=O)N([C@H]7CCC(=O)NC7=O)C8=O)CC6)CC5)ncnc43)C2)n1 [Compound 43, N-((1s,3s)-3-(6-((1-(2-((1-(2-((2-(2,6-dioxopiperidin-3-yl)-1,3-dioxoisoindolin-5-yl)oxy)acetyl)piperidin-4-yl)oxy)ethyl)piperidin-4-yl)amino)-9H-purin-9-yl)cyclobutyl)-6-methylpicolinamide]",90%,60%,70%,50%,0%,0%
"Cc1cccc(C(=O)N[C@H]2C[C@@H](n3cnc4c(NC5CCN(CCOC6CCN(C(=O)CNc7ccc8c(c7)C(=O)N(C7CCC(=O)NC7=O)C8=O)CC6)CC5)ncnc43)C2)n1 (stereo partly drawn) [Compound 45, N-((1s,3s)-3-(6-((1-(2-((1-((2-(2,6-dioxopiperidin-3-yl)-1,3-dioxoisoindolin-5-yl)glycyl)piperidin-4-yl)oxy)ethyl)piperidin-4-yl)amino)-9H-purin-9-yl)cyclobutyl)-6-methylpicolinamide]",80%,60%,90%,0/0/0%,0/0/0%,0/0/0%
"Cc1cccc(C(=O)NC2CC(n3cnc4c(NC5CCN(CCOC6CCN(C(=O)CNc7cccc8c7C(=O)N([C@H]7CCC(=O)NC7=O)C8=O)CC6)CC5)ncnc43)C2)n1 (stereo partly drawn) [Compound 46, N-((1s,3s)-3-(6-((1-(2-((1-((2-(2,6-dioxopiperidin-3-yl)-1,3-dioxoisoindolin-4-yl)glycyl)piperidin-4-yl)oxy)ethyl)piperidin-4-yl)amino)-9H-purin-9-yl)cyclobutyl)-6-methylpicolinamide]",80%,90%,100%,20%,10%,30%
"Cc1cccc(C(=O)N[C@H]2C[C@@H](n3cnc4c(NC5CCN(CCOC6CCN(c7ccc8c(c7)C(=O)N([C@H]7CCC(=O)NC7=O)C8=O)CC6)CC5)ncnc43)C2)n1 [Compound 47, N-((1s,3s)-3-(6-((1-(2-((1-(2-(2,6-dioxopiperidin-3-yl)-1,3-dioxoisoindolin-5-yl)piperidin-4-yl)oxy)ethyl)piperidin-4-yl)amino)-9H-purin-9-yl)cyclobutyl)-6-methylpicolinamide]",100/100/100%,100/100/100%,100/100/100%,40%,0%,0%
"Cc1cccc(C(=O)NC2CC(n3cnc4c(NC5CCN(CCOC6CCN(c7cccc8c7C(=O)N([C@H]7CCC(=O)NC7=O)C8=O)CC6)CC5)ncnc43)C2)n1 (stereo partly drawn) [Compound 48, N-((1s,3s)-3-(6-((1-(2-((1-(2-(2,6-dioxopiperidin-3-yl)-1,3-dioxoisoindolin-4-yl)piperidin-4-yl)oxy)ethyl)piperidin-4-yl)amino)-9H-purin-9-yl)cyclobutyl)-6-methylpicolinamide]",100/100/100%,100/100/100%,100/100/100%,50%,20%,20%
"Cc1cccc(C(=O)N[C@H]2C[C@@H](n3cnc4c(NC5CCN(C(=O)CC6CCN(C(=O)COc7cccc8c7C(=O)N([C@H]7CCC(=O)NC7=O)C8=O)CC6)CC5)ncnc43)C2)n1 [Compound 50, N-((1s,3s)-3-(6-((1-(2-(1-(2-((2-(2,6-dioxopiperidin-3-yl)-1,3-dioxoisoindolin-4-yl)oxy)acetyl)piperidin-4-yl)acetyl)piperidin-4-yl)amino)-9H-purin-9-yl)cyclobutyl)-6-methylpicolinamide]",80%,40%,10%,90%,60%,20%
"Cc1cccc(C(=O)NC2CC(n3cnc4c(NC5CCN(C(=O)CC6CCN(C(=O)CNc7ccc8c(c7)C(=O)N([C@H]7CCC(=O)NC7=O)C8=O)CC6)CC5)ncnc43)C2)n1 (stereo partly drawn) [Compound 51, N-((1s,3s)-3-(6-((1-(2-(1-((2-(2,6-dioxopiperidin-3-yl)-1,3-dioxoisoindolin-5-yl)glycyl)piperidin-4-yl)acetyl)piperidin-4-yl)amino)-9H-purin-9-yl)cyclobutyl)-6-methylpicolinamide]",70%,20%,20%,70%,0%,0%
"Cc1cccc(C(=O)NC2CC(n3cnc4c(NC5CCN(C(=O)CC6CCN(C(=O)CNc7cccc8c7C(=O)N([C@H]7CCC(=O)NC7=O)C8=O)CC6)CC5)ncnc43)C2)n1 (stereo partly drawn) [Compound 52, N-((1s,3s)-3-(6-((1-(2-(1-((2-(2,6-dioxopiperidin-3-yl)-1,3-dioxoisoindolin-4-yl)glycyl)piperidin-4-yl)acetyl)piperidin-4-yl)amino)-9H-purin-9-yl)cyclobutyl)-6-methylpicolinamide]",40%,40%,50%,70%,30%,10%
